These molecules were tested against Methionine aminopeptidase 1 (Homo sapiens, UniProt P53582) (assay: MetAP Enzyme Activity Assay). Settings: pH 7.4; 22 °C.
Method: A coupled enzyme chromogenic assay was developed to measure methionine aminopeptidase activity by monitoring the production of free methionine with L-amino acid oxidase and horseradish peroxidase. Assays were performed in 96-well microtiter plates. The reactions were carried out at room temperature, and absorbance at 450 nm (A450) was measured every 20 s over a period of 20 min using an automatic plate reader (Molecular Devices, CA). The rate in mOD/min, calculated for each well, was converted to nM methionine releases per minute per nM MetAP in the reaction.

Compound | IC50
CC(C)CSC[C@@H](N)[C@H](O)C(=O)N[C@@H](C)c1cccc2ccccc12 | 2.2 µM
CCOC(=O)[C@H](C)NC(=O)[C@@H](O)[C@H](N)CCSC [ethyl (2S)-2-[(2S,3R)-3-amino-2-hydroxy-5-(methylsulfanyl)pentanamido]propanoate] | 63 µM
CCSCC[C@@H](N)[C@H](O)C(=O)N[C@@H](C)c1cccc2ccccc12 [bestatin-type inhibitor, 4] | 0.37 µM
CCOC(=O)[C@H](C)NC(=O)[C@@H](O)[C@H](N)CCSCC [ethyl (2S)-2-[(2S,3R)-3-amino-5-(ethylsulfanyl)-2-hydroxypentanamido]propanoate] | 69 µM
CCOC(=O)[C@H](C)NC(=O)[C@@H](O)[C@H](N)CSCC(C)C [ethyl (2S)-2-[(2S,3S)-3-amino-2-hydroxy-4-[(2-methylpropyl)sulfanyl]butanamido]propanoate] | 66 µM

Continued, values first:

IC50 | Compound
20 µM | CCSCC[C@@H](N)[C@H](O)C(=O)NNC(=O)c1cccc(Cl)c1 [N'-[(2S,3R)-3-amino-5-(ethylsulfanyl)-2-hydroxypentanoyl]-3-chlorobenzohydrazide]
8.1 µM | CC(C)CSC[C@@H](N)[C@H](O)C(=O)NNC(=O)c1cccc(Cl)c1
12 µM | CC(C)SCC[C@@H](N)[C@H](O)C(=O)N[C@@H](C)c1cccc2ccccc12
57 µM | CC(C)SCC[C@@H](N)[C@H](O)C(=O)NNC(=O)c1cccc(Cl)c1 [N'-[(2S,3R)-3-amino-2-hydroxy-5-(propan-2-ylsulfanyl)pentanoyl]-3-chlorobenzohydrazide]
